# Structures can show the parent of a compound that is named as a salt.
# Tested on: Mycolicibacterium fortuitum
# Experiment: Antibacterial activity against Mycobacterium fortuitum ATCC 6841 assessed as bacterial growth inhibition incubated for 72 hrs by CLSI protocol based micro-dilution method
# Format: functional
row,Compound,MIC [µM]
1,CC(C)/N=c1\cc2n(-c3ccc(Cl)cc3)c3ccccc3nc-2cc1Nc1ccc(Cl)cc1 [CLOFAZIMINE],4.22
2,CC(=O)NC[C@H]1CN(c2ccc(N3CCOCC3)c(F)c2)C(=O)O1 [LINEZOLID],23.7
3,CC[C@H]1OC(=O)[C@H](C)[C@@H](O[C@H]2C[C@@](C)(OC)[C@@H](O)[C@H](C)O2)[C@H](C)[C@@H](O[C@@H]2O[C@H](C)C[C@H](N(C)C)[C@H]2O)[C@](C)(OC)C[C@@H](C)C(=O)[C@H](C)[C@@H](O)[C@]1(C)O [CLARITHROMYCIN],1.34

# Tested on: Mycolicibacterium fortuitum
# Experiment: Antibacterial activity against Mycobacterium fortuitum ATCC 6841 assessed as reduction in bacterial growth incubated for 72 hrs by Mueller-Hinton broth micro-dilution based assay
# Format: functional
row,Compound,MIC [µM]
1,C=C[C@H](O)C#CC#CC/C=C\CCCCCCC [FALCARINOL],16.4
2,C[C@@H](N)CCCCCC/C=C\CCCCCCCCN,44
3,CCCCCCCCCCC/C=C\C=C\C(O)CC(=O)O (centres undefined),0.11
4,C=C[C@@H](O)C#CC#C[C@@H](O)/C=C\CCCCCCC [FALCARINDIOL],30.4
5,CCCCCCCC/C=C\CCCCCCCC(=O)O [OLEIC ACID],56.6
6,CCCCC/C=C\C/C=C\CCCCCCCC(=O)O [LINOLEIC ACID],14.3
7,CCCCCCCCCCCCCCCC(=O)O [PALMITIC ACID],2

# Tested on: Mycolicibacterium fortuitum
# Experiment: Antimycobacterial activity against Mycobacterium fortuitum ATCC 6841
# Format: functional
row,Compound,MIC [µM]
1,O=c1nc(N2CCN(CC3CCCCC3)CC2)sc2c([N+](=O)[O-])cc(C(F)(F)F)cc12 [MACOZINONE],0.022
2,C/C=C/c1cc(OC)c2oc(-c3ccc(O)c(OC)c3)c(C)c2c1,0.15
3,CC1(C)CCC2=C(O1)c1ccccc1C(=O)C2=O [LAPACHONE],0.13
4,OCCCCCCCCN=C=S,21.4
5,CC(C)(O)[C@@H]1OC2=C(C(=O)c3ccccc3C2=O)[C@H]1O,45.6
6,Cc1cc(O)c2c(c1)C(=O)C=CC2=O [RAMENTACEONE],0.12
7,c1ccc2c(c1)[I+]c1ccccc1-2 [DIPHENYLENEIODONIUM CHLORIDE],0.4
8,C/C=C/c1cc(OC)c2c(c1)[C@@H](C)[C@H](c1ccc(O)c(OC)c1)O2 [LICARINE A],0.12
9,N#Cc1cc([N+](=O)[O-])cnc1SC(=S)N1CCCCCC1,2.48
10,CC(C)(O)c1cc2c(o1)C(=O)c1ccccc1C2=O [AVICEQUINONE C],48.8
11,CN(C)c1ncnc(SC(=S)N2CCCC2)c1[N+](=O)[O-],4.98
12,CCN(CC)C(=S)Sc1ncc([N+](=O)[O-])cc1C#N,1.35
13,NC(=O)c1cc([N+](=O)[O-])cc([N+](=O)[O-])c1SC(=S)N1CCCC1,17.5
14,COc1ncnc(SC(=S)N2CCCC2)c1[N+](=O)[O-],5.19
15,N#Cc1cc([N+](=O)[O-])cnc1SC(=S)N1CCCCC1,5.05
16,N#Cc1cc([N+](=O)[O-])cnc1SC(=S)N1CCCC1,5.3

# Tested on: Mycolicibacterium fortuitum
# Experiment: Antimycobacterial activity against Mycobacterium fortuitum ATCC 35931 assessed as reduction in bacterial growth
# Format: functional
row,Compound,MIC [µM]
1,COc1cc(OC)c2c(ccc3cc(O)c(O)cc32)c1,92.5
2,Fc1ccc(C(c2ccc(OCCN3CCCCC3)cc2)c2cccs2)cc1 (centres undefined),7.9
3,CCN(CC)CCOc1ccc(C(c2ccc(F)cc2)c2cccs2)cc1 (centres undefined),16.3
4,Clc1ccc(C(c2ccc(OCCN3CCCCC3)cc2)c2cccs2)cc1 (centres undefined),3.79
5,CC(=O)c1ccc2c3c4c(c(O)cc(C)c4c(O)c2c1O)C(=O)c1c(O)cc(C)cc1-3,0.12
6,CCN(CC)CCCCOc1cc2oc3cc(OCCCCN(CC)CC)c(OC)c(CC=C(C)C)c3c(=O)c2c(OCCCCN(CC)CC)c1CC=C(C)C,15.8
7,C[n+]1ccc(-c2c3nc(c(-c4cc[n+](C)cc4)c4ccc([nH]4)c(-c4cc[n+](C)cc4)c4ccc([nH]4)c(-c4cc[n+](C)cc4)c4nc2C=C4)C=C3)cc1 [TMPYP4],50
8,Fc1ccc(C(c2ccc(OCCN3CCCC3)cc2)c2cccs2)cc1 (centres undefined),8.2
9,COc1cccc(C(c2ccc(OCCN3CCCCC3)cc2)c2cccs2)c1 (centres undefined),7.67
10,CC(C)N(CCOc1ccc(C(c2ccc(F)cc2)c2cccs2)cc1)C(C)C (centres undefined),15.2
11,Fc1ccc(C(c2ccc(OCCN3CCCCCC3)cc2)c2cccs2)cc1 (centres undefined),3.81
12,CC(=O)c1c(O)c(C)c(O)c2c1OC1=CC(=O)C(C(C)=O)C(=O)C12C (centres undefined),0.15
13,CC(=O)OCC1=CCc2c(cc(O)c3c(=O)cc(C)oc23)OC1,25.3
14,O=S(=O)(O)c1ccc(-c2c3nc(c(-c4ccc(S(=O)(=O)O)cc4)c4ccc([nH]4)c(-c4ccc(S(=O)(=O)O)cc4)c4nc(c(-c5ccc(S(=O)(=O)O)cc5)c5ccc2[nH]5)C=C4)C=C3)cc1,100
15,CC(C)N(CCOc1ccc(C(c2ccc(Cl)cc2)c2cccs2)cc1)C(C)C (centres undefined),29.3
16,COc1ccc(C(c2ccc(OCCN3CCCCC3)cc2)c2cccs2)cc1 (centres undefined),7.67

# Tested on: Mycolicibacterium fortuitum
# Experiment: Antimycobacterial activity against Mycobacterium fortuitum NCTC 10394 assessed as reduction in microbial growth incubated for 72 hrs by resazurin dye based broth microdilution method
# Format: functional
row,Compound,MIC [µM]
1,O=c1ccc2nccc3c4ccccc4n1c23 [CANTHIN-6-ONE],72.7
2,C[C@@H]([C@H](NC(=O)[C@H](Cc1ccc2ccccc2c1)NC(=O)N[C@@H](Cc1c[nH]c2ccccc12)C(=O)NCC(C)(C)C)C(=O)NC[C@H]1C[C@@H](O)[C@H](n2ccc(=O)[nH]c2=O)O1)N(C)C(=O)CN,1
3,CC(C)CCn1cc(NC(=O)c2ccc3[nH]c(C(=O)Nc4cc(C(=O)Nc5ccc(C(=O)NCCN6CCN(C)CC6)n5C)n(CCC(C)C)c4)cc3c2)cc1C(=O)Nc1cc(C(=O)NCCN2CCN(C)CC2)n(C)c1,9.5
4,C1=C2CCCC/C=C\C=C\CCN3CC[C@@H]4[C@H](CCCCCC/C=C\C=C/CCN(C2)C[C@H]14)C3 [HALICYCLAMINE A],54
5,O=c1ccc2nccc3c4cccc(O)c4n1c23,67.7
6,C[n+]1c2ccccc2cc2[n-]c3ccccc3c21 [CRYPTOLEPINE HYDROCHLORIDE],59.5
7,C[C@@H]([C@H](NC(=O)[C@H](CC1CCCCC1)NC(=O)N[C@@H](Cc1c[nH]c2ccccc12)C(=O)NCC(C)(C)C)C(=O)NC[C@H]1C[C@@H](O)[C@H](n2ccc(=O)[nH]c2=O)O1)N(C)C(=O)CN,1
8,CC(C)CCn1cc(NC(=O)c2ccc3[nH]c(C(=O)Nc4cc(C(=O)Nc5ccc(C(=O)NCCN(C)C)n5C)n(CCC(C)C)c4)cc3c2)cc1C(=O)Nc1cc(C(=O)NCCN(C)C)n(C)c1,5.2

# Tested on: Mycolicibacterium fortuitum
# Experiment: Antimycobacterial activity against Mycobacterium fortuitum ATCC 6841 assessed as reduction in microbial growth incubated for 72 hrs by resazurin dye based broth microdilution method
# Format: functional
row,Compound,MIC [µM]
1,COc1c(N2CCN(c3ccc(N4C[C@H](CNC(C)=O)OC4=O)cc3F)CC2)cnc2nccn12,2.07
2,O=[N+]([O-])c1ccc(C2=NOC(c3ccc(N4CCC(Oc5ccc(OC(F)(F)F)cc5)CC4)cc3)C2)o1 (centres undefined),12.1
3,COc1cc([C@](O)(CCN(C)C)[C@@H](c2cc3cc(Br)ccc3nc2OC)c2ccnc(OC)c2OC)cc(OC)n1,0.9
4,O=c1ccc2ncc(=O)n3c2n1C[C@H]3CN1CCC(NCc2cc3c(cn2)OCCC3)CC1 [GEPOTIDACIN],4.46
5,COc1ncc(-c2ccc(Cl)cc2)cc1[C@@H](c1ccccc1)[C@@](O)(CCN(C)C)c1cccc2ccccc12 [SUDAPYRIDINE],15
6,COc1ncccc1Nc1cc2nc3ccccc3n(-c3ccc(OC(F)(F)F)cc3)c-2c/c1=N\C1CCC(OC)CC1 (centres undefined),1.17
7,CC(=O)NC[C@H]1CN(c2ccc(N3CCN(c4ccc5nccn5n4)CC3)c(F)c2)C(=O)O1,2.2
8,CC(=O)NC[C@H]1CN(c2ccc(-c3ccc(-c4nnnn4C)nc3)c(F)c2)C(=O)O1,0.61

# Tested on: Mycolicibacterium fortuitum
# Experiment: Antibacterial activity against Mycobacterium fortuitum
# Format: functional
row,Compound,MIC [µM]
1,Cc1c(Cc2ccc(N3CCNCC3)cc2C(F)(F)F)cc(-c2ccc(Cl)cc2)n1-c1ccc(Cl)cc1,7.35
2,CCCCN1C(=S)C(=O)c2ccccc21,32
3,CCOC(=O)/C=C\C(=O)c1ccc(C(C)(C)C)cc1,30.7
4,COc1ccccc1/C=C/C1=NN(C(=N)N)C(c2ccccc2OC)C1 (centres undefined),0.89
5,Nc1ccc(-c2nc3cc(-c4ccc5[nH]c(-c6ccc(N)cc6)nc5c4)ccc3[nH]2)cc1,19.2
6,COc1cc(Cc2cc(-c3ccc(Cl)cc3)n(-c3ccc(Cl)cc3)c2C)ccc1N1CCNCC1,15.8
7,OCCCCCCCCN=C=S,20
8,CC1(C)[C@@H](O)C[C@H](O)[C@]2(C)[C@H]3CC=C4[C@@H]5C[C@](C)(C(=O)O)CC[C@]5(C)CC[C@@]4(C)[C@]3(C)CC[C@@H]12,3.2
9,CN1C(=S)C(=O)c2ccccc21,63
10,N=C(N)N1N=C(/C=C/c2ccc(Cl)cc2)CC1c1ccc(Cl)cc1 (centres undefined),0.43
11,COc1cc(/C=C/C2=NN(C(=N)N)C(c3cc(OC)c(OC)c(OC)c3)C2)cc(OC)c1OC (centres undefined),5.31
12,C[C@@H](NC(=O)c1cc([N+](=O)[O-])cc([N+](=O)[O-])c1)c1ccccc1,1.27
13,CCOC(=O)/C=C/C(=O)c1ccc(C(C)(C)C)cc1,15.4
14,CCOC(=O)/C=C/C(=O)c1cc2ccccc2s1,61.5
15,Cc1ccccc1/C=C/C1=NN(C(=N)N)C(c2ccccc2C)C1 (centres undefined),0.49
16,COc1cc(O)cc(/C=C/c2cc3ccccc3s2)c1,56.7
17,CC(=O)O[C@@H]1[C@@H](OC(C)=O)[C@@H](O)[C@H](OC[C@]2(C)[C@@H](O)C[C@H](O)[C@]3(C)[C@H]4CC=C5[C@@H]6C[C@](C)(C(=O)O[C@@H]7O[C@@H](C)[C@H](O)[C@@H](O)[C@H]7O)CC[C@]6(C)CC[C@@]5(C)[C@]4(C)CC[C@@H]23)O[C@H]1C,27.9
18,C[C@H](OC(=O)c1cc([N+](=O)[O-])cc([N+](=O)[O-])c1)c1ccccc1,> 10.3
19,C[C@H](NC(=O)c1cc([N+](=O)[O-])cc([N+](=O)[O-])c1)c1ccccc1,39.7
20,C[C@@H](OC(=O)c1cc([N+](=O)[O-])cc([N+](=O)[O-])c1)c1ccccc1,4.94
21,O=C1C(=S)N(c2ccccc2)c2ccccc21,63
22,CC(=O)O[C@@H]1[C@@H](OC(C)=O)[C@@H](O)[C@H](OC[C@]2(C)[C@@H](O)C[C@H](O)[C@]3(C)[C@H]4CC=C5[C@@H]6C[C@](C)(C(=O)O)CC[C@]6(C)CC[C@@]5(C)[C@]4(C)CC[C@@H]23)O[C@H]1C,17.1
23,N=C(N)N1N=C(/C=C/c2ccccc2)CC1c1ccccc1 (centres undefined),0.54
24,CC(=O)O[C@@H]1[C@@H](O)[C@@H](O)[C@H](OC[C@]2(C)[C@@H](O)C[C@H](O)[C@]3(C)[C@H]4CC=C5[C@@H]6C[C@](C)(C(=O)O)CC[C@]6(C)CC[C@@]5(C)[C@]4(C)CC[C@@H]23)O[C@H]1C,29.3
25,Cc1c(Cc2ccc(N3CCNCC3)cn2)cc(-c2ccc(Cl)cc2)n1-c1ccc(Cl)cc1,16.8
26,COc1ccc(/C=C/C2=NN(C(=N)N)C(c3ccc(OC)cc3)C2)cc1 (centres undefined),0.44
